Data from patent US10590075B2, “Cyanopyrrolidine derivatives as inhibitors for DUBs” (Mission Therapeutics Limited, priority 2015, dated 2020).

Molecular target: Cezanne 1 (Homo sapiens (Human), UniProt Q6GQQ9)
Assay: Cezanne 1 biochemical IC50 assay
Conditions: FLAG-Cezanne 1 purified from HEK293T cells; fluorescence polarisation, TAMRA labelled peptide linked to ubiquitin; 30 min preincubation, 2 hr read; read-out: IC50 range
Experimental: The Cezanne 1 construct was PCR amplified and cloned into a pFLAG-CMV-6c vector (Sigma-Aldrich) with an N-terminal FLAG tag. HEK293T cells were transfected with FLAG-Cezanne 1 using TransIT-LT1 transfection reagent (Mirus) according to the manufacturer's instructions. Cells were harvested 48 hours after transfection. Cells were washed once with PBS and scraped in lysis buffer (50 mM Tris, pH 7.5, 150 mM NaCl, 3 mM EDTA, 0.5% NP40, 10% glycerol, 5 mM beta-mercaptoethanol, protease inhibitors (complete mini, Roche) and phosphatase inhibitors (PhosSTOP mini, Roche). Lysates were incubated for 30 min on ice and centrifuged at 4000 rpm for 10 min at 4° C. Soluble supernatant was added to FLAG affinity resin (EZview Red ANTI-FLAG M2 affinity gel, Sigma-Aldrich) equilibrated in low salt buffer (20 mM Tris, pH 7.5, 150 mM NaCl, 0.5 mM EDTA, 5 mM beta-mercaptoethanol) and incubated at 4° C. for 3 hours rotating. The resin was spun at 2000 rpm for 2 min and the supernatant was removed. The resin was washed two times with low salt buffer and one time with high salt buffer (20 mM Tris, pH 7.5, 500 mM NaCl, 0.5 mM EDTA, 5 mM beta-mercaptoethanol, protease inhibitors (complete mini, Roche) and phosphatase inhibitors (PhosSTOP mini, Roche). To elute the bound Cezanne 1, elution buffer (10 mM Tris, pH 7.5, 150 mM NaCl, 0.5 mM EDTA, 10% glycerol, 0.5% NP40, 5 mM beta-mercaptoethanol, 0.15 mg/ml 3× FLAG peptide (Sigma-Aldrich)) was added to the resin and incubated at 4° C. for 2.5 hours while rotating. The resin was centrifuged at 4000 rpm for 30 seconds, and the supernatant containing purified FLAG-Cezanne 1 was removed and stored at −80° C.
Dilution plates were prepared at 21 times the final concentration (2100 μM for a final concentration of 100 μM) in 50% DMSO in a 96-well polypropylene V-bottom plate (Greiner #651201). A typical 8-point dilution series to be 100, 30, 10, 3, 1, 0.3, 0.1, […]. Reactions were performed in duplicate in black 384 well plates (small volume, Greiner 784076) in a final reaction volume of 21 μl. Either 1 μl of 50% DMSO or diluted compound was added to the plate. Cezanne 1 was diluted in reaction buffer (40 mM Tris, pH 7.5, 0.005% Tween 20, 0.5 mg/ml BSA, 5 mM—beta-mercaptoethanol) to the equivalent of 0.005 μl/well and 10 μl of diluted Cezanne 1 was added to the compound. Enzyme and compound were incubated for 30 min at room temp. Reactions were initiated by the addition of 50 nM of TAMRA labelled peptide linked to ubiquitin via an iso-peptide bond as fluorescence polarisation substrate. Reactions were read immediately after addition of substrate and following a 2 hr incubation at room temperature. Readings were performed on a Pherastar Plus (BMG Labtech). λ Excitation 540 nm; λ Emission 590 nm.

Chain of Cezanne 1 (Q6GQQ9 whole entry): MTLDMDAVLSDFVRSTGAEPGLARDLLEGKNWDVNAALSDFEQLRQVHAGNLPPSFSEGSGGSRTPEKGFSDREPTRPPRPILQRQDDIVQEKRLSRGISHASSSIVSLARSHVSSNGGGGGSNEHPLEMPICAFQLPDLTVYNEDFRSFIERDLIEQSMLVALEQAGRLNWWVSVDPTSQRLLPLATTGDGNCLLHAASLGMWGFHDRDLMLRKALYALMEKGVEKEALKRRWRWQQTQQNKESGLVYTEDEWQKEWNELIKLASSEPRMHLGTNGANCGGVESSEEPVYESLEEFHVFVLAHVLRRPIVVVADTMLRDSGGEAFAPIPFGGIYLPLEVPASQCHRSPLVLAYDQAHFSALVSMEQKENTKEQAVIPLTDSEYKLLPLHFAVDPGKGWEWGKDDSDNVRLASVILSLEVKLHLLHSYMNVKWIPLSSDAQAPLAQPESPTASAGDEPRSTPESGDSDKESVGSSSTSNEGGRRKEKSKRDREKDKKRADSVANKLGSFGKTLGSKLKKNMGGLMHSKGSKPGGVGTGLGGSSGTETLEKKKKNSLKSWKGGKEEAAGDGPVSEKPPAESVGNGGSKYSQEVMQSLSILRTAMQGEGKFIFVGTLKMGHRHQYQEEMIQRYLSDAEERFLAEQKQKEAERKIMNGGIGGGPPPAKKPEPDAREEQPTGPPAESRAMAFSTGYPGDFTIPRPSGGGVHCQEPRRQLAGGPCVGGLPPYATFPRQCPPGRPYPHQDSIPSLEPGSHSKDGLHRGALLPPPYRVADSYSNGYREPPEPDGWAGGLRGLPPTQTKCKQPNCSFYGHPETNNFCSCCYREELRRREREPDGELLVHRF

SMILES	IC50
N#CN1CCC(F)(C(=O)Nc2ccc(Cl)c(C(F)(F)F)c2)C1 (stereo not shown) [Example 1, N-(4-chloro-3-(trifluoromethyl)phenyl)-1-cyano-3-fluoropyrrolidine-3-carboxamide]	1000 to 10000 nM
N#CN1CCC(F)(C(=O)Nc2nc(-c3ccccc3)cs2)C1 (stereo not shown) [Example 2, 1-cyano-3-fluoro-N-(4-phenylthiazol-2-yl)pyrrolidine-3-carboxamide]	1000 to 10000 nM
N#CN1CCC(F)(C(=O)Nc2ccc3ncsc3c2)C1 (stereo not shown) [Example 3, N-(benzo[d]thiazol-6-yl)-1-cyano-3-fluoropyrrolidine-3-carboxamide]	100 to 1000 nM
N#CN1CCC(F)(C(=O)Nc2cnc3ccccc3c2)C1 (stereo not shown) [Example 4, 1-cyano-3-fluoro-N-(quinolin-3-yl)pyrrolidine-3-carboxamide]	1000 to 10000 nM
N#CN1CCC(F)(C(=O)Nc2ccc3ncccc3c2)C1 (stereo not shown) [Example 5, 1-cyano-3-fluoro-N-(quinolin-6-yl)pyrrolidine-3-carboxamide]	1000 to 10000 nM
Cc1nc(-c2cccc(NC(=O)C3(F)CCN(C#N)C3)c2)cs1 (stereo not shown) [Example 6, 1-cyano-3-fluoro-N-(3-(2-methylthiazol-4-yl)phenyl)pyrrolidine-3-carboxamide]	1000 to 10000 nM
N#CN1CCC(F)(C(=O)Nc2cccc(Oc3ccccc3)c2)C1 (stereo not shown) [Example 7, 1-cyano-3-fluoro-N-(3-phenoxyphenyl)pyrrolidine-3-carboxamide]	1000 to 10000 nM
N#CN1CCC(F)(C(=O)Nc2ncc(-c3ccccc3)s2)C1 (stereo not shown) [Example 8, 1-cyano-3-fluoro-N-(5-phenylthiazol-2-yl) pyrrolidine-3-carboxamide]	100 to 1000 nM
N#CN1CC[C@](F)(C(=O)Nc2ncc(-c3ccccc3)s2)C1 [Example 9, (R)-1-cyano-3-fluoro-N-(5-phenylthiazol-2-yl) pyrrolidine-3-carboxamide]	100 to 1000 nM
N#CN1CCC(F)(C(=O)Nc2cc(-c3ccccc3)on2)C1 (stereo not shown) [Example 10, 1-cyano-3-fluoro-N-(5-phenylisoxazol-3-yl)pyrrolidine-3-carboxamide]	100 to 1000 nM
N#CN1CCC(F)(C(=O)Nc2cn(-c3ccccc3)cn2)C1 (stereo not shown) [Example 11, 1-cyano-3-fluoro-N-(1-phenyl-1H-imidazol-4-yl)pyrrolidine-3-carboxamide]	1000 to 10000 nM
N#CN1CC[C@@](F)(C(=O)Nc2cnn(-c3ccccc3)c2)C1 [Example 12, (S)-1-cyano-3-fluoro-N-(1-phenyl-1H-pyrazol-4-yl)pyrrolidine-3-carboxamide]	1000 to 10000 nM
N#CN1CC[C@](F)(C(=O)Nc2cnn(-c3ccccc3)c2)C1 [Example 13, (R)-1-cyano-3-fluoro-N-(1-phenyl-1H-pyrazol-4-yl)pyrrolidine-3-carboxamide]	< 100 nM
N#Cc1ccc(-n2cnc(NC(=O)[C@@]3(F)CCN(C#N)C3)c2)cc1 [Example 14, (R)-1-cyano-N-(1-(4-cyanophenyl)-1H-imidazol-4-yl)-3-fluoropyrrolidine-3-carboxamide]	1000 to 10000 nM
N#CN1CC[C@](F)(C(=O)Nc2cnn(Cc3ccccc3)c2)C1 [Example 15, (R)—N-(1-benzyl-1H-pyrazol-4-yl)-1-cyano-3-fluoropyrrolidine-3-carboxamide]	1000 to 10000 nM
N#CN1CCC(F)(C(=O)Nc2nc3ccc(-c4cn[nH]c4)cc3s2)C1 (stereo not shown) [Example 16, N-(6-(1H-pyrazol-4-yl)benzo[d]thiazol-2-yl)-1-cyano-3-fluoropyrrolidine-3-carboxamide]	1000 to 10000 nM
N#CN1CCC(F)(C(=O)Nc2nc3ccc(-c4ccccc4)cc3s2)C1 (stereo not shown) [Example 17, 1-cyano-3-fluoro-N-(6-phenylbenzo[d]thiazol-2-yl)pyrrolidine-3-carboxamide]	1000 to 10000 nM
N#CN1CCC(F)(C(=O)Nc2ncc(-c3cccc4[nH]ncc34)s2)C1 (stereo not shown) [Example 18, N-(5-(1H-indazol-4-yl)thiazol-2-yl)-1-cyano-3-fluoropyrrolidine-3-carboxamide]	100 to 1000 nM
N#CN1CCC(F)(C(=O)Nc2cc(-c3ccccc3)no2)C1 (stereo not shown) [Example 20, 1-cyano-3-fluoro-N-(3-phenylisoxazol-5-yl)pyrrolidine-3-carboxamide]	100 to 1000 nM
N#CN1CC[C@](F)(C(=O)Nc2cc(-c3ccccc3)no2)C1 [Example 21, (R)-1-cyano-3-fluoro-N-(3-phenylisoxazol-5-yl)pyrrolidine-3-carboxamide]	100 to 1000 nM
N#CN1CCC(F)(C(=O)Nc2ncc(-c3cccc(C(N)=O)c3)s2)C1 (stereo not shown) [Example 22, N-(5-(3-carbamoylphenyl)thiazol-2-yl)-1-cyano-3-fluoropyrrolidine-3-carboxamide]	100 to 1000 nM
CNC(=O)c1cccc(-c2cnc(NC(=O)C3(F)CCN(C#N)C3)s2)c1 (stereo not shown) [Example 23, 1-cyano-3-fluoro-N-(5-(3-(methylcarbamoyl)phenyl)thiazol-2-yl)pyrrolidine-3-carboxamide]	100 to 1000 nM
CNC(=O)c1cccc(-c2cnc(NC(=O)[C@@]3(F)CCN(C#N)C3)s2)c1 [Example 24, (R)-1-cyano-3-fluoro-N-(5-(3-(methylcarbamoyl)phenyl)thiazol-2-yl)pyrrolidine-3-carboxamide]	100 to 1000 nM
N#CN1CCC(F)(C(=O)Nc2ncc(-c3cccc(-n4ccnc4)c3)s2)C1 (stereo not shown) [Example 25, N-(5-(3-(1H-imidazol-1-yl)phenyl)thiazol-2-yl)-1-cyano-3-fluoropyrrolidine-3-carboxamide]	100 to 1000 nM
N#CN1CCC(F)(C(=O)Nc2cc(-c3cccc(-n4ccnc4)c3)no2)C1 (stereo not shown) [Example 26, N-(3-(3-(1H-imidazol-1-yl)phenyl)isoxazol-5-yl)-1-cyano-3-fluoropyrrolidine-3-carboxamide]	100 to 1000 nM
N#CN1CC[C@](F)(C(=O)Nc2cc(-c3cccc(-n4ccnc4)c3)no2)C1 [Example 27, (R)—N-(3-(3-(1H-imidazol-1-yl)phenyl)isoxazol-5-yl)-1-cyano-3-fluoropyrrolidine-3-carboxamide]	100 to 1000 nM
N#CN1CCC(F)(C(=O)Nc2cn3cc(-c4ccn[nH]4)ccc3n2)C1 (stereo not shown) [Example 28, N-(6-(1H-pyrazol-5-yl)imidazo[1,2-a]pyridin-2-yl)-1-cyano-3-fluoropyrrolidine-3-carboxamide]	100 to 1000 nM
CNC(=O)c1cccc(-c2ccc3nc(NC(=O)C4(F)CCN(C#N)C4)sc3c2)c1 (stereo not shown) [Example 29, 1-cyano-3-fluoro-N-(6-(3-(methylcarbamoyl)phenyl)benzo[d]thiazol-2-yl)pyrrolidine-3-carboxamide]	1000 to 10000 nM
